# Source: PMC6028718, “Lanthanide-Dependent Methanol Dehydrogenases of XoxF4 and XoxF5 Clades Are Differentially Distributed Among Methylotrophic Bacteria and They Reveal Different Biochemical Properties” (Frontiers in Microbiology, 2018)
# Tested on: T1, XoxF5
# T1 construct: His-tagged, expressed in native host Methylomonas sp; LW13 (wild-type) grown with Ce3+; Ni-NTA purified
# Experiment: PMS-mediated DCPIP reduction at […] nm
# Type: biochemical
# Settings: pH 9.0, 45 mM NH4Cl, ~26°C, 1 mM PMS, 150 μM DCPIP; Ce3+-grown enzyme; read-out: Methylomonas sp. LW13 XoxF5 / Km
row,Structure (SMILES),Km [µM]
1,CCCCO [Butanol],96 ± 70
2,CCO [Ethanol],85 ± 44
3,CCCCCCO [Hexanol],40 ± 37
4,CO [Methanol],39 ± 11
